Converted amounts (≈) assume the structure as drawn. The source made the active and inactive calls. No cut-off for these calls is given here.
Assays:
Mus musculus [1] = test: Toxicity in mouse EAC cells implanted Swiss albino mouse assessed as RBC count at 0.5 mg for 9 days (reference value: 3.69 10^6/mm3); type: organism-based; settings: in vivo, 216 h
WI-38 = test: Cytotoxicity in human WI38 cells assessed as inhibition of cell viability incubated for 48 hrs by MTT assay; type: cell-based; settings: WI-38, 48 h
HT-29 = test: Antitumor activity against human HT-29 cells assessed as inhibition of cell viability incubated for 48 hrs by MTT assay; type: functional, cell-based; settings: HT-29, 48 h
Candida albicans [2] = test: Antimicrobial activity against Candida albicans incubated for 48 hrs by disc diffusion assay; type: functional
Ehrlich [3] = test: Antitumor activity against mouse EAC cells implanted in Swiss albino mouse assessed as reduction in tumor cell count at 0.5 mg for 9 days (reference value: 9.85 ml); type: functional, cell-based
HepG2 = test: Antitumor activity against human HepG2 cells assessed as inhibition of cell viability incubated for 48 hrs by MTT assay; type: functional, cell-based; settings: HepG2, 48 h
Ehrlich [4] = test: Antitumor activity against mouse EAC cells implanted in Swiss albino mouse assessed as tumor volume at 0.5 mg for 9 days (reference value: 9.85 ml); type: functional
[5] = system: Chromobacterium violaceum; test: Inhibition of quorum sensing system in Chromobacterium violaceum ATCC 12472 assessed as inhibition of violacein production at 5 mg/mL incubated for 48 hrs
Escherichia coli [6] = test: Antimicrobial activity against Escherichia coli incubated for 24 hrs by disc diffusion assay; type: functional
Aspergillus fumigatus [7] = test: Antimicrobial activity against Aspergillus fumigatus incubated for 48 hrs by disc diffusion assay; type: functional
Ehrlich [8] = test: Antitumor activity against mouse EAC cells implanted in Swiss albino mouse assessed as increase in life span at 0.5 mg for 9 days relative to untreated control; type: functional
[9] = Binding affinity to DNA (unknown origin) assessed as reduction in absorption maxima for methyl green/DNA complex incubated for 24 hrs by methyl green/DNA displacement assay
Mus musculus [10] = test: Toxicity in mouse EAC cells implanted Swiss albino mouse assessed as hemoglobin level at 0.5 mg for 9 days (reference value: 8.15 g/dl); type: organism-based; settings: in vivo, 216 h
Mus musculus [11] = test: Toxicity in mouse EAC cells implanted Swiss albino mouse assessed as WBC count at 0.5 mg for 9 days (reference value: 23.96 10^3/mm3); type: organism-based; settings: in vivo, 216 h
Bacillus cereus [12] = test: Antimicrobial activity against Bacillus cereus incubated for 24 hrs by disc diffusion assay; type: functional
Ehrlich [13] = test: Antitumor activity against mouse EAC cells implanted in Swiss albino mouse assessed as mean survival time at 0.5 mg for 9 days (reference value: 14.5 day); type: functional
Staphylococcus aureus [14] = test: Antimicrobial activity against Staphylococcus aureus incubated for 24 hrs by disc diffusion assay; type: functional
MCF7 = test: Antitumor activity against human MCF7 cells assessed as inhibition of cell viability incubated for 48 hrs by MTT assay; type: functional, cell-based; settings: MCF7, 48 h
Bacillus cereus [15] = test: Antimicrobial activity against Bacillus cereus incubated for 24 hrs by serial dilution method; type: functional
Escherichia coli [16] = test: Antimicrobial activity against Escherichia coli incubated for 24 hrs by serial dilution method; type: functional
Staphylococcus aureus [17] = test: Antimicrobial activity against Staphylococcus aureus incubated for 24 hrs by serial dilution method; type: functional
Candida albicans [18] = test: Antimicrobial activity against Candida albicans incubated for 48 hrs by serial dilution method; type: functional
Aspergillus fumigatus [19] = test: Antimicrobial activity against Aspergillus fumigatus incubated for 48 hrs by serial dilution method; type: functional

Row | SMILES | Activity (Mus musculus [1]) [×10⁶ /mm3] | IC50 (WI-38) [µM] | IC50 (HT-29) [µM] | diameter of the inhibition zone (DIZ) (Candida albicans [2]) [mm] | IC50 (HepG2) [µM] | Activity (Ehrlich [4]) [mL] | INH [5] [mm] | diameter of the inhibition zone (DIZ) (Escherichia coli [6]) [mm] | diameter of the inhibition zone (DIZ) (Aspergillus fumigatus [7]) [mm] | ILS (Ehrlich [8]) [%] | IC50 [9] [µM] | Activity (Mus musculus [10]) [g/dL] | Activity (Mus musculus [11]) [×10³ /mm3] | diameter of the inhibition zone (DIZ) (Bacillus cereus [12]) [mm] | MST (Ehrlich [13]) [days] | diameter of the inhibition zone (DIZ) (Staphylococcus aureus [14]) [mm] | IC50 (MCF7) [µM] | MIC (Escherichia coli [16]) [µM] | MIC (Staphylococcus aureus [17]) [µM] | MIC (Candida albicans [18]) [µM] | further results
1 | CC1=NN=C(C)C1=NNc1sc2c(c1C(=O)NN)CCCCC2 | 5.57 | 33.2 | 5.7 | <2 | 6.9 | 1.85 | 5 | <2 | <2 | 227.55 | 27.8 | 13.23 | 6.9 | <2 | 47.5 | <2 | 4.1 |  |  |  | Activity (Ehrlich [3]): Active
2 | CCOC(=O)/C(=N/Nc1sc2c(c1C(=O)OCC)CCCCC2)C(C)=O | 5.51 | 44.8 | 4.5 | <2 | 9.1 | 1.97 | < 2 | 22 | <2 | 210.34 | 40.6 | 13.15 | 7.11 | 24 | 45 | 32 | 5.8 | 205 (≈ 78.1 µg/mL) | 205 (≈ 78.1 µg/mL) |  | Activity (Ehrlich [3]): Active; MIC (Bacillus cereus [15]): 411 µM (≈ 156 µg/mL)
3 | CC(=O)C1(C(C)=O)N=Nc2sc3c(c2C1=O)CCCCC3 | 4.81 | 47.6 | 12.8 | 19 | 20.7 | 3.3 | 3 | <2 | <2 | 148.27 | 45.5 | 12.04 | 9.11 | 7 | 36 | <2 | 14.9 |  |  | 513 (≈ 156 µg/mL) | 
4 | CCOC(=O)c1c(NN=C(C(C)=O)C(C)=O)sc2c1CCC2 | 4.95 | 33.5 | 18.7 | 23 | 13.8 | 3.13 | 11 | 21 | 26 | 172.35 | 42.2 | 12.23 | 8.76 | 26 | 39.5 | 22 | 7.6 | 485 (≈ 156 µg/mL) | 485 (≈ 156 µg/mL) | 485 (≈ 156 µg/mL) | MIC (Aspergillus fumigatus [19]): 485 µM; MIC (Bacillus cereus [15]): 485 µM (≈ 156 µg/mL)
5 | CO/N=C(\C(=O)N[C@@H]1C(=O)N2C(C(=O)O)=C(COC(C)=O)CS[C@H]12)c1csc(N)n1 [CEFOTAXIME] |  |  |  |  |  |  |  |  |  |  |  |  |  |  |  |  |  | 13.6 (≈ 6.19 µg/mL) | 32.9 (≈ 15 µg/mL) |  | 
6 | CCOC(=O)c1c(NN=C(C(C)=O)C(C)=O)sc2c1CCCCC2 |  |  | 53.3 | 20 | 30.6 |  | 4 | 6 | 30 |  | 37.1 |  |  | 14 |  | 8 | 21.4 |  |  | 223 (≈ 78.1 µg/mL) | MIC (Aspergillus fumigatus [19]): 223 µM
7 | CCOC(=O)c1c(NN=C(C#N)C#N)sc2c1CCCCC2 | 5.09 | 53.5 | 7.6 | 11 | 10.8 | 2.7 | 9 | 7 | 9 | 193.1 | 55.3 | 12.54 | 8.18 | 11 | 42.5 | 19 | 8.2 |  | 988 (≈ 312 µg/mL) |  | 
8 | CC1(C)S[C@@H]2[C@H](NC(=O)[C@H](N)c3ccccc3)C(=O)N2[C@H]1C(=O)O [AMPICILLIN] |  |  |  |  |  |  |  | 28 |  |  |  |  |  | 12 |  | 20 |  | 55.9 (≈ 19.5 µg/mL) | 894 (≈ 313 µg/mL) |  | MIC (Bacillus cereus [15]): 3580 µM (≈ 1250 µg/mL)
9 | OC(Cn1cncn1)(Cn1cncn1)c1ccc(F)cc1F [FLUCONAZOLE] |  |  |  | 22 |  |  |  |  | <2 |  |  |  |  |  |  |  |  |  |  | 4080 (≈ 1250 µg/mL) | MIC (Aspergillus fumigatus [19]): > 2500 µg/mL
10 | CCOC(=O)/C(=N/Nc1sc2c(c1C(=O)OCC)CCC2)C(C)=O | 5.49 | 25.3 | 8.8 | 5 | 16.1 | 2.32 | 6 | 4 | 16 | 205.52 | 65.7 | 13.1 | 7.56 | 7 | 44.3 | <2 | 9.7 |  |  |  | Activity (Ehrlich [3]): Active; MIC (Aspergillus fumigatus [19]): 887 µM
11 | NNC(=O)c1c(NN=C2C(N)=NN=C2N)sc2c1CCCCC2 |  |  | 30.5 | 24 | 21.6 |  | 12 | 19 | 32 |  | 52.2 |  |  | 30 |  | 28 | 23.2 | 467 (≈ 156 µg/mL) | 234 (≈ 78.1 µg/mL) | 467 (≈ 156 µg/mL) | MIC (Aspergillus fumigatus [19]): 234 µM; MIC (Bacillus cereus [15]): 234 µM (≈ 78.1 µg/mL)

— ChEMBL document CHEMBL4190350, “Synthesis, antimicrobial, antiquorum-sensing, antitumor and cytotoxic activities of new series of cyclopenta(hepta)[b]thiophene and fused cyclohepta[b]thiophene analogs” (Eur J Med Chem, 2017)
